From ChEMBL document CHEMBL2440110, “Synthesis of azide derivative and discovery of glyoxalase pathway inhibitor against pathogenic bacteria” (Bioorg Med Chem Lett, 2013)
In brackets after ≈: the same amount, converted by molar mass.

Legend:
[1] = system: Staphylococcus aureus; experiment: Antibacterial activity against Staphylococcus aureus after 24 hrs by Alamar blue assay; assay type: functional
[2] = system: Mycolicibacterium smegmatis; experiment: Antibacterial activity against Mycobacterium smegmatis; assay type: functional
[3] = system: PBMC; experiment: Cytotoxicity against PBMC (unknown origin) at 0.05 mM after 8 hrs by MTT assay; assay type: cell-based; details: 50 µM
[4] = system: Burkholderia thailandensis; experiment: Antibacterial activity against Burkholderia thailandensis; assay type: functional

Structure (SMILES)	MIC90 [1] [µg/mL]	MIC90 [2] [µg/mL]	Activity [3]	MIC90 [4] [µg/mL]
COC(=O)[C@@H](N=[N+]=[N-])[C@@H](OC(=O)CNC(=O)C(CS)NC(=O)CCC(NC(=O)OCc1ccccc1)C(=O)O)C(=O)OC (stereo partly specified)	5 (≈ 7.98 µM)	6 (≈ 9.58 µM)	Non-toxic	
O=C(O)CNC(=O)C(CS)NC(=O)CCC(NC(=O)OCc1ccccc1)C(=O)O (stereo unspecified)	20 (≈ 45.3 µM)		Non-toxic	12.5 (≈ 28.3 µM)
